Laboratory results taken from patent US6716833B2, “Acetylenic α-amino acid-based sulfonamide hydroxamic acid tace inhibitors” (priority 1999, dated 2004).

Target: TNF-α converting enzyme (TACE) (Homo sapiens, UniProt P78536)
Assay: TACE inhibition (fluorescent peptidyl substrate)
Type: biochemical
Conditions: 1 uM; Table 15

TNF-α converting enzyme (TACE), sequence (P78536 215-824, species assumed): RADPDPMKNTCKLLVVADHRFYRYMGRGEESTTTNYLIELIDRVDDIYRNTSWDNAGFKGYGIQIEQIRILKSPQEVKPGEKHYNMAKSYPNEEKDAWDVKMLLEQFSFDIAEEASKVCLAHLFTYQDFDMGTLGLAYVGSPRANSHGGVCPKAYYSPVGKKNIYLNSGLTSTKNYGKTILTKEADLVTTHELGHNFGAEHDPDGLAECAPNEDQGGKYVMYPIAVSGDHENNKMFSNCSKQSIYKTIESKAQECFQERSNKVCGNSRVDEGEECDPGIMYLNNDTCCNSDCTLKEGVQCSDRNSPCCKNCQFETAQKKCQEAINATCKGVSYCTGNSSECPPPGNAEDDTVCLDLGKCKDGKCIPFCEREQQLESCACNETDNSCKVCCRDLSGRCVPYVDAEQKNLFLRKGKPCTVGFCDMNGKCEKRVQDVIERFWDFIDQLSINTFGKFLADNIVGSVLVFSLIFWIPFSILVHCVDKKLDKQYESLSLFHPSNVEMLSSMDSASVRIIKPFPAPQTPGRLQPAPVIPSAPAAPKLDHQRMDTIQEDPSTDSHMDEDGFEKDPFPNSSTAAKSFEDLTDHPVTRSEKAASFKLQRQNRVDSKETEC

Structure (SMILES) | % Inhibition at 1 uM (In Vitro Inhibition of TACE)
CC#CCOc1ccc(S(=O)(=O)NCCC(=O)NO)cc1 [Example 69] | 48.5%
CC#CCOc1ccc(S(=O)(=O)NC(CSC(C)(C)C)C(=O)NO)cc1 (stereo not drawn) [Example 73] | 79%
CC#CCOc1ccc(S(=O)(=O)NC(CCCN)C(=O)NO)cc1 (stereo not drawn) [Example 76] | 29.7%
CC#CCOc1ccc(S(=O)(=O)NC(CCC(=O)O)C(=O)NO)cc1 (stereo not drawn) [Example 86] | 37.5%
CC#CCOc1ccc(S(=O)(=O)N2CC(OCc3ccccc3)CC2C(=O)NO)cc1 (stereo not drawn) [Example 88] | 8.4%
CC#CCOc1ccc(S(=O)(=O)N[C@H](C(=O)NO)[C@@H](C)CC)cc1 [Example 89] | 56.8%

Now from value to molecule:

% Inhibition at 1 uM (In Vitro Inhibition of TACE) | Structure (SMILES)
47.6% | CC#CCOc1ccc(S(=O)(=O)N[C@@H](CC)C(=O)NO)cc1 [Example 63]
45.6% | CC#CCOc1ccc(S(=O)(=O)NC(CC(N)=O)C(=O)NO)cc1 (stereo not drawn) [Example 66]
46.2% | CC#CCOc1ccc(S(=O)(=O)NC(CC(=O)O)C(=O)NO)cc1 (stereo not drawn) [Example 67]
21.1% | CC#CCOc1ccc(S(=O)(=O)NC(CCN)C(=O)NO)cc1 (stereo not drawn) [Example 70]
107% | CC#CCOc1ccc(S(=O)(=O)NC(CC(C)C)C(=O)NO)cc1 (stereo not drawn) [Example 79]
47.8% | CC#CCOc1ccc(S(=O)(=O)NC(Cc2c[nH]cn2)C(=O)NO)cc1 (stereo not drawn) [Example 87]

Same assay, conditions: 1 uM; Table 15; read-out: % Inhibition at 1 uM (In Vitro Inhibition of TACE)

Structure (SMILES) | inhibition at 1 µM
CC#CCOc1ccc(S(=O)(=O)NC(C)C(=O)NO)cc1 (stereo in doubt) [Example 62B, L-2-(4-but-2-ynyloxy-Benzenesulfonylamino)-N-hydroxy-propionamide] | 46.2%
CC#CCOc1ccc(S(=O)(=O)N[C@@H](C(=O)NO)C(C)C)cc1 [Example 85] | 102%

Same assay, conditions: IC 50 nM (In Vitro Inhibition of TACE), Table 15

Structure (SMILES) | IC50
CC#CCOc1ccc(S(=O)(=O)N[C@@H](CCCNC(=N)N)C(=O)NO)cc1 [Example 64] | 420 ± 50 nM
CC#CCOc1ccc(S(=O)(=O)N[C@@H](CCCN=C(N)NS(=O)(=O)c2ccc(C)cc2)C(=O)NO)cc1 [Example 65] | 398 ± 136 nM
CC#CCOc1ccc(S(=O)(=O)N[C@@H](CC(=O)OC2CCCCC2)C(=O)NO)cc1 [Example 68] | 885 nM
CC#CCOc1ccc(S(=O)(=O)N[C@@H](CC2CCCCC2)C(=O)NO)cc1 [Example 71] | 402 ± 55 nM
CC#CCOc1ccc(S(=O)(=O)N[C@H](C(=O)NO)C2CCCCC2)cc1 [Example 72] | 550 nM
CC#CCOc1ccc(S(=O)(=O)N[C@H](CC2CCCCC2)C(=O)NO)cc1 [Example 77] | 6.9 ± 3.3 nM
CC#CCOc1ccc(S(=O)(=O)N[C@@H](C(=O)NO)C2CCCCC2)cc1 [Example 78] | 11.8 ± 4.6 nM
CC#CCOc1ccc(S(=O)(=O)N[C@H](CCSC)C(=O)NO)cc1 [Example 80] | 10.8 ± 3.7 nM
CC#CCOc1ccc(S(=O)(=O)N2CCC[C@@H]2C(=O)NO)cc1 [Example 82] | 7.1 nM
CC#CCOc1ccc(S(=O)(=O)N[C@@H](C(=O)NO)C(C)C)cc1 [Example 85] | 8.3 ± 2.7 nM

Second part, the molecule after the results:

IC50 | Structure (SMILES)
297 ± 119 nM | CC#CCOc1ccc(S(=O)(=O)N[C@@H](CSCc2ccc(OC)cc2)C(=O)NO)cc1 [Example 74]
387 nM | CC#CCOc1ccc(S(=O)(=O)N[C@H](CC(N)=O)C(=O)NO)cc1 [Example 75]
4.99 ± 1.1 nM | CC#CCOc1ccc(S(=O)(=O)N[C@H](Cc2ccccc2)C(=O)NO)cc1 [Example 81]
45.1 ± 9.5 nM | CC#CCOc1ccc(S(=O)(=O)N[C@H](Cc2c[nH]c3ccccc23)C(=O)NO)cc1 [Example 83]
7.8 ± 0.4 nM | CC#CCOc1ccc(S(=O)(=O)N[C@H](Cc2ccc(O)cc2)C(=O)NO)cc1 [Example 84]
462 ± 58 nM | CC#CCOc1ccc(S(=O)(=O)N[C@@H](CC(C)C)C(=O)NO)cc1 [Example 90]

Same assay, conditions: read-out: IC 50 nM (In Vitro Inhibition of TACE); Table 15

IC50 | Structure (SMILES)
451 ± 31 nM | CC#CCOc1ccc(S(=O)(=O)NC(CSC(C)(C)C)C(=O)NO)cc1 (stereo not drawn) [Example 73]
5.7 ± 2.5 nM | CC#CCOc1ccc(S(=O)(=O)NC(CC(C)C)C(=O)NO)cc1 (stereo not drawn) [Example 79]

Same assay, conditions: read-out: TACE IC50

IC50 | Structure (SMILES)
6.8 nM | CC#CCOc1ccc(S(=O)(=O)N(C)CC(=O)NO)cc1 [Example 17, 2-[(4-but-2-ynyloxy-Benzenesulfonyl)-methyl-amino]-N-hydroxy-acetamide]
